Test results as given in patent publication US6730672B2, “Aminoheterocyclic derivatives as antithrombotic or anticoagulant agents” (Zeneca Limited, priority 1994, dated 2004).

Legend:
[1] = biological target: human Factor Xa (Homo sapiens, UniProt P00742); assay: Measurement of Factor Xa Inhibition (chromogenic substrate S-2765); format: biochemical; conditions: test a), pH7.5, 37° C., read-out: IC50 against Factor Xa
Protocol: a) Measurement of Factor Xa Inhibition
An in vitro assay system was carried out based on the method of Kettner et al., J. Biol. Chem., 1990, 265, 18289-18297, whereby various concentrations of a test compound were dissolved in a pH7.5 buffer containing 0.5% of polyethylene glycol and incubated at 37° C. with human Factor Xa (0.001 Units/ml, 0.3 ml) for 15 minutes. The chromogenic substrate S-2765 (KabiVitum AB, 20 μM) was added and the mixture was incubated at 37° C. for 20 minutes whilst the absorbance at 405 nm was measured. The maximum reaction velocity (Vmax) was determined and compared with that of a control sample containing no test compound. Inhibitor potency was expressed as an IC50 value.

[2] = biological target: human thrombin (Homo sapiens, UniProt P00734); assay: Measurement of Thrombin Inhibition (chromogenic substrate S-2238); format: biochemical; conditions: test b), read-out: IC50 against thrombin
Excerpt: b) Measurement of Thrombin Inhibition
The procedure of method a) was repeated except that human thrombin (0.005 Units/ml) and the chromogenic substrate S-2238 (KabiVitum AB) were employed.

[3] = system: human blood plasma; assay: Measurement of Anticoagulant Activity in vitro, prothrombin time (PT) test; format: biochemical; conditions: test c)
Protocol: (§1) c) Measurement of Anticoagulant Activity
(§2) An in vitro assay whereby human venous blood was collected and added directly to a sodium citrate solution (3.2 g/100 ml, 9 parts blood to 1 part citrate solution). Blood plasma was prepared by contrifugation (1000 g, 15 minutes) and stored at 2-4° C. Conventional activated partial thromboplastin time (APTT) and prothrombin time (PT) tests were carried out in the presence of various concentrations of a test compound and the concentration of test compound required to double the clotting time, hereinafter referred to as CT2, was determined. In the APTT test, the test compound, blood plasma and APTT reagent were incubated at 37° C. for 3 minutes. Calcium chloride (0.02M) was added and fibrin formation and the time required for a clot to form were determined. In the PT test, an analogous procedure was followed except that tissue thromboplastin was used in place of APTT reagent.

[4] = system: Alderley Park Wistar rats; assay: Ex vivo Assay of Anticoagulant Activity (APTT and PT coagulation assays after dosing); format: in vivo; conditions: test d), rat
Protocol: d) An ex vivo Assay of Anticoagulant Activity
The test compound was administered intravenously or orally to a group of Alderley Park Wistar rats. At various times thereafter animals were anaesthetised, blood was collected and APTT and PT coagulation assays analogous to those described hereinbefore were conducted.

[5] = system: Alderley Park Wistar rats; assay: In vivo Measurement of Antithrombotic Activity (thromboplastin/stasis-induced vena cava thrombus); conditions: test e), rat, 5 mg/kg dose
Protocol: e) An in vivo Measurement of Antithrombotic Activity
Thrombus formation was induced using an analogous method to that described by Vogel et al., Thromb. Research, 1989, 54, 399-410. A group of Alderley Park Wistar rats was anaesthetised and surgery was performed to expose the vena cava. […] Test compound was administered intravenously or orally. At an appropriate time thereafter tissue thromboplastin (1 ml/kg) was administered into the jugular vein and, after 10 seconds, the two sutures were tightened to induce stasis within the ligated portion of vena cava. After 10 minutes the ligated tissue was excised and the thrombus therein was isolated, blotted and weighed.

[6] = system: human blood plasma; assay: Measurement of Anticoagulant Activity in vitro, activated partial thromboplastin time (APTT) test; format: biochemical; conditions: test c)
Protocol: as §1, §2

Sequence of human Factor Xa (P00742 235-488 limits assumed): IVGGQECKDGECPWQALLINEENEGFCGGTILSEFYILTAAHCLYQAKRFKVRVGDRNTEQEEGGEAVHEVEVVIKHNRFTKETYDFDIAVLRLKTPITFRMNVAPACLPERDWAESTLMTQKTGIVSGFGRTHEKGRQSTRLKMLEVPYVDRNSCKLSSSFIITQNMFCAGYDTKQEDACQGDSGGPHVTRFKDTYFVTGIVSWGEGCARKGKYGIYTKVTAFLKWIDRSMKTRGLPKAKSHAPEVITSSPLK
Sequence of human Factor Xa (P00742 41-179 partner limits assumed): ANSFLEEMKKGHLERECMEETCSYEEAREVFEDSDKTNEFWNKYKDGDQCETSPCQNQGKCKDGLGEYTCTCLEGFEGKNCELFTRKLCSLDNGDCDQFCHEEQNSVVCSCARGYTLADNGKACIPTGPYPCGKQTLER

Question: For `CCOC(=O)C1CN(S(=O)(=O)c2ccc3cc(Cl)ccc3c2)CCN1C(=O)C1CCN(c2ccncc2)CC1` (stereo not drawn) [Example 62, 4-(6-chloronaphth-2-ylsulphonyl)-2-ethoxycarbonyl-1-[1-(4-pyridyl)-piperidin-4-ylcarbonyl]piperazine], which IC50 [1] is on record?
Answer: 2 nM

Question: And the IC50 [2]?
Answer: > 10000 nM

Question: And the “CT2 (PT), concentration required to double the clotting time” value (“CT2 (PT), concentration required” below) [3]?
Answer: 0.7 µM

Question: And the “clotting time following intravenous administration” value ([4]; 5 mg/kg dose)?
Answer: increased clotting time

Question: Which IC50 [1] does the source give for `O=C(O)C1CN(S(=O)(=O)c2ccc3cc(Cl)ccc3c2)CCN1C(=O)C1CCN(c2ccncc2)CC1` (stereo not drawn) [Example 63, 2-carboxy-4-(6-chloronaphth-2-ylsulphonyl)-1-[1-(4-pyridyl)piperidin-4-ylcarbonyl]-piperazine] here?
Answer: 8 nM

Question: What about the IC50 [2] of the same compound?
Answer: > 10000 nM

Question: And the “CT2 (PT), concentration required” value [3]?
Answer: 4.6 µM

Question: What about the “clotting time following intravenous administration” value ([4]; 5 mg/kg dose) of the same compound?
Answer: increased clotting time

Question: And the “thrombus weight following intravenous administration” value [5]?
Answer: reduced thrombus weight

Question: What about the melting point of the same compound?
Answer: 215 to 220 °C (dec.)

Question: Which IC50 [1] does the source give for `O=C(CNS(=O)(=O)c1ccc2ccccc2c1)NC(CNC(=O)C1CCN(c2ccncc2)CC1)C(=O)N1CCCCC1` (stereo not drawn) [Example 1, 2-(2-naphthalenesulphonamido)-N-{1-piperidinocarbonyl-2-[1-(4-pyridyl)-piperidin-4-ylcarbonylamino]ethyl}acetamide] here?
Answer: 300 nM

Question: What about the IC50 [2] of the same compound?
Answer: > 100000 nM

Question: And the “CT2 (PT), concentration required” value [3]?
Answer: 14 µM

Question: What about the “CT2 (APTT), concentration required to double the clotting time” value (from here on “CT2 (APTT), concentration required”) [6] of the same compound?
Answer: 62 µM

Question: And the “clotting time following intravenous administration” value ([4]; 10 mg/kg dose)?
Answer: increased clotting time

Question: And the “thrombus weight following intravenous administration” value [5]?
Answer: reduced thrombus weight

Question: With `O=C(C1CCN(c2ccncc2)CC1)N1CCN(S(=O)(=O)/C=C/c2ccc(Cl)cc2)CC1` [Example 39, Compound No. 2, 1-[(E)-4-chlorostyrylsulphonyl]-4-[-1-(4-pyridyl)piperidin-4-ylcarbonyl]piperazine] as the compound, how does the IC50 [1] read?
Answer: 12 nM

Question: And the IC50 [2]?
Answer: > 100000 nM

Question: What about the “CT2 (PT), concentration required” value [3] of the same compound?
Answer: 1 µM

Question: What about the “CT2 (APTT), concentration required” value [6] of the same compound?
Answer: 1.8 µM

Question: And the “clotting time following intravenous administration” value ([4]; 5 mg/kg dose)?
Answer: increased clotting time

Question: What about the “thrombus weight following intravenous administration” value [5] of the same compound?
Answer: reduced thrombus weight

Question: Which IC50 [1] does the source give for `O=C(C1CCN(c2ccncc2)CC1)N1CCN(S(=O)(=O)c2ccc3cc(Cl)ccc3c2)CC1` [Example 40, Compound No. 5, 1-(6-chloronaphth-2-ylsulphonyl)-4-[1-(4-pyridyl)piperidin-4-ylcarbonyl]piperazine] here?
Answer: 3 nM

Question: What about the IC50 [2] of the same compound?
Answer: 34000 nM

Question: And the “CT2 (PT), concentration required” value [3]?
Answer: 0.5 µM

Question: What about the “CT2 (APTT), concentration required” value [6] of the same compound?
Answer: 1.2 µM

Question: And the “clotting time following intravenous administration” value ([4]; 5 mg/kg dose)?
Answer: increased clotting time
